# Experiments:
# Type in all cases: biochemical
# PRMT3 = PRMT3 (Homo sapiens, UniProt O60678); test: SAHH-coupled fluorescence assay, inhibition of PRMT3; parameters: PRMT3 (residues 211-531) was cloned into the pET28a-MHL expression vector; tag of the pET28a-MHL vector (not described); made in house; host or cells: Escherichia coli BL21(DE3)
# Procedure: (§1) A fluorescence-based SAHH-coupled assay was applied to study the inhibition activity of all synthesized compounds on PRMT 1 and 3.
# (§2) The PRMT3 methylation assay was performed under the following conditions in a final well volume of 100 μL: 20 mM Tris (pH=7.5), 0.01% Triton X-100, 5 μM SAHH, 0.25 μM PRMT3, 30 μM AdoMet, and 15 μM ThioGlo4. […] Fluorescence was monitored on a BMG CLARIOstar microplate reader with excitation 380 nm and emission 505 nm. Data were processed by using GraphPad Prism software 8.0. All experiments were performed in duplicate.
# (§3) Next, the inhibition activity of the library was investigated for five PRMT members from type I PRMTs.
# as §2, with “8.0.” for “8.0. All experiments were performed in duplicate.”
# PRMT1 = target: T1, PRMT1 (Homo sapiens, UniProt Q99873); test: SAHH-coupled fluorescence assay, inhibition of PRMT1; conditions: for IC50: read-out: IC50 FOR PRMT1
# T1 construct: made in house
# Procedure: as §1
# (§4) The PRMT1 methylation assay was performed under the following conditions in a final well volume of 100 μL: 2.5 mM HEPES (pH=7.0), 25 mM NaCl, 25 μM EDTA, 50 μM TCEP, 0.01% Triton X-100, 5 μM SAHH, 0.1 μM PRMT1, 10 μM AdoMet, and 10 μM ThioGlo4. […] The fluorescence signal was monitored on a BMG CLARIOstar microplate reader with excitation at 400 nm and emission at 465 nm for 15 min. Data were processed using GraphPad Prism software 8.0.
# as §3
# as §4, with “A fluorescence-based SAHH-coupled assay was applied to determine the inhibition activity of all synthesized compounds on PRMT 1 and 3. The PRMT1” for “The PRMT1”, “software 8.0. All experiments were performed in duplicate.” for “software 8.0.”
# PRMT8 = PRMT8 (Homo sapiens, UniProt Q9NR22); test: radioactive assay (Reaction Biology Corp.), inhibition of PRMT8
# Procedure: as §3
# (§5) The PRMT 4, 6 and 8 methylation assays were performed by Reaction Biology corp.
# PRMT6 = PRMT6 (Homo sapiens, UniProt Q96LA8); test: radioactive assay (Reaction Biology Corp.), inhibition of PRMT6
# Procedure: as §3, §5
# PRMT4 = target: T2, PRMT4 (Homo sapiens, UniProt Q86X55); test: radioactive assay (Reaction Biology Corp.), inhibition of PRMT4
# T2 sequence (Q86X55 1-608): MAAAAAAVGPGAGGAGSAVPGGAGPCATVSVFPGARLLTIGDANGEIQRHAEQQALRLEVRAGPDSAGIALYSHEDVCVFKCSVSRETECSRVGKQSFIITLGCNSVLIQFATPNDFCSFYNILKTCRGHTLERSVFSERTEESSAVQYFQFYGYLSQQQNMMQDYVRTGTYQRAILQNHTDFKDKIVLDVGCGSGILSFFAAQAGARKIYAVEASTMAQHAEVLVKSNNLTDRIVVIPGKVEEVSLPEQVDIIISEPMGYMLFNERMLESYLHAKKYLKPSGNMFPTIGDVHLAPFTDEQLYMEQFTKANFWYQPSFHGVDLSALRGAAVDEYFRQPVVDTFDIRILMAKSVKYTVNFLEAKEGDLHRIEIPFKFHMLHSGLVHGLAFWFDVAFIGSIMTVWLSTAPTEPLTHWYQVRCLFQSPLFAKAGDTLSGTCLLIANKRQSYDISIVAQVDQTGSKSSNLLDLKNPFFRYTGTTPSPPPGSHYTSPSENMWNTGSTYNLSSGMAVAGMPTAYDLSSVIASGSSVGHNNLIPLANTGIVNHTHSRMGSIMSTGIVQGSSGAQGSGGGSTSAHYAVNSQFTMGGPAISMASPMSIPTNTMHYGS
# Procedure: as §3, §5
# T1 sequence (Q99873 whole entry, species assumed): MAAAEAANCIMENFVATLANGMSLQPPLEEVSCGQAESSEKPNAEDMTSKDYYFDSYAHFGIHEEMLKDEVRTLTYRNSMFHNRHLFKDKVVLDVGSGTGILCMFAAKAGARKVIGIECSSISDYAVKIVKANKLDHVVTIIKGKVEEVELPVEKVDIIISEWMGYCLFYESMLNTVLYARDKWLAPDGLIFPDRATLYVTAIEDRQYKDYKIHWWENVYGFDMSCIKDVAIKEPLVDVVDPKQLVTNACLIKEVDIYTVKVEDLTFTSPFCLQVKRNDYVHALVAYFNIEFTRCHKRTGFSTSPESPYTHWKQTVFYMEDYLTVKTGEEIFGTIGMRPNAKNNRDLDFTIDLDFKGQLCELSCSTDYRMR
# PRMT3, sequence (O60678 211-531): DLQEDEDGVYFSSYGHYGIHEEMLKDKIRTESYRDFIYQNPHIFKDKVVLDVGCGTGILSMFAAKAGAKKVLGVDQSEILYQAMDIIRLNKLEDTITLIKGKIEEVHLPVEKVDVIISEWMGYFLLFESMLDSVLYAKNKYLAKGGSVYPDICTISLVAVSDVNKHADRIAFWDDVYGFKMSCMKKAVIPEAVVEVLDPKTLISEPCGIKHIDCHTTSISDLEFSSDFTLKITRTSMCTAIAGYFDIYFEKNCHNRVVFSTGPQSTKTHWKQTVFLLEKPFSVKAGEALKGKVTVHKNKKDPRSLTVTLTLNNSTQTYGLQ
# PRMT8, sequence (Q9NR22 whole entry, species assumed): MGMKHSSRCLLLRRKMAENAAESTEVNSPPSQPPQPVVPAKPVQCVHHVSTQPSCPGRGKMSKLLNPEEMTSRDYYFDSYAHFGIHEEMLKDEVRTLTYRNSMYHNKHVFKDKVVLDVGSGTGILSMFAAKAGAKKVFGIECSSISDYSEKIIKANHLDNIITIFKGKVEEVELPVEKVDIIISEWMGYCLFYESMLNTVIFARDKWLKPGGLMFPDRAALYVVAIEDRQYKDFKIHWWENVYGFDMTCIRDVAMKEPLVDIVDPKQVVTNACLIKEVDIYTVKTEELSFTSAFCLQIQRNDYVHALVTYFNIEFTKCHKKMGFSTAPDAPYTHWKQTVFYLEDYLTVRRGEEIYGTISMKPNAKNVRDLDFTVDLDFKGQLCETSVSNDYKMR
# PRMT6, sequence (Q96LA8 whole entry, species assumed): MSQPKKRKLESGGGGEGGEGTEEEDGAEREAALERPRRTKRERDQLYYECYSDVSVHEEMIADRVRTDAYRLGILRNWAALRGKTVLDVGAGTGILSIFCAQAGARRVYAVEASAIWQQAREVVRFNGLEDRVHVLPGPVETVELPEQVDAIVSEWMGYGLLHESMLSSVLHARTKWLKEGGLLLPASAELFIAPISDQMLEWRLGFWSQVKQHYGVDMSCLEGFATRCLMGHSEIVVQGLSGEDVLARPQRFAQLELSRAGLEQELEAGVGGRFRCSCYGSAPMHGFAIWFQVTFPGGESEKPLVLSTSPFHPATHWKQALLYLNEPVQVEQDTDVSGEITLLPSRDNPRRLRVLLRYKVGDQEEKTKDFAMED
SMILES,inhibition at 10 µM (PRMT3),inhibition at 10 µM (PRMT1),inhibition at 10 µM (PRMT8),inhibition at 10 µM (PRMT6),inhibition at 10 µM (PRMT4),PRMT6 inhibition (PRMT6; 10 μM),IC50 (PRMT1)
Nc1ncnc2c1ncn2[C@@H]1O[C@H](CSCCCNCc2cccc(-c3cccc(F)c3)c2)[C@@H](O)[C@H]1O [Compound 10q],25%,63%,66%,36%,97%,–,–
Nc1cccc(-c2ccc(CNC(=O)NCCSC[C@H]3O[C@@H](n4cnc5c(N)ncnc54)[C@H](O)[C@@H]3O)cc2)c1 [Compound 8b],5%,7%,0%,79%,43%,–,–
COc1cc2nc(-c3ccc(Cl)cc3)nc(NCCSC[C@H]3O[C@@H](n4cnc5c(N)ncnc54)[C@H](O)[C@@H]3O)c2cc1OC [Compound 12a],4%,1%,23%,85%,69%,selective inhibition to PRMT6,–
Nc1ncnc2c1ncn2[C@@H]1O[C@H](CSCCCNCc2cccc(-c3ccc(O)cc3)c2)[C@@H](O)[C@H]1O [Compound 10n],21%,57%,69%,36%,96%,–,–
Nc1ncnc2c1ncn2[C@@H]1O[C@H](CSCCCNC(=O)NCCCc2ccccc2)[C@@H](O)[C@H]1O [Compound 7q],5%,18%,16%,-6%,62%,–,–
Nc1ncnc2c1ncn2[C@@H]1O[C@H](CSCCNC(=O)NCc2ccc3cnccc3c2)[C@@H](O)[C@H]1O [Compound 7e],8%,6%,-2%,9%,30%,–,–
Nc1cccc(-c2cccc(CNCCSC[C@H]3O[C@@H](n4cnc5c(N)ncnc54)[C@H](O)[C@@H]3O)c2)c1 [Compound 10l],8%,7%,62%,53%,100%,–,–
Nc1ncnc2c1ncn2[C@@H]1O[C@H](CSCCNC(=O)NCc2ccc(-c3cc[nH]n3)cc2)[C@@H](O)[C@H]1O [Compound 8f],9%,27%,2%,-6%,17%,–,–
N=C(NCCCSC[C@H]1O[C@@H](n2cnc3c(NCCCc4ccccc4)ncnc32)[C@H](O)[C@@H]1O)NCC1CCC1 [Compound 1-89],7%,80%,85%,90%,44%,–,590 ± 73 nM
N=C(NCCCSC[C@H]1O[C@@H](n2cnc3c(NCCCc4ccccc4)ncnc32)[C@H](O)[C@@H]1O)NCCCc1ccccc1 [Compound 19m],5%,87%,85%,83%,58%,–,740 ± 80 nM
N=C(NCCCSC[C@H]1O[C@@H](n2cnc3c(NCCCc4ccccc4)ncnc32)[C@H](O)[C@@H]1O)NC1CCCC1 [Compound 19d],8%,90%,85%,91%,60%,–,590 ± 71 nM
